Structures can show the parent of a compound that is named as a salt. Where no end group is shown, it is not given here.
How the values were obtained:
[1] = Solubilizing CD-Dau, Daunorubicine and t-boc in Neowater (Example 7); type: physicochemical
Protocol: Required concentration: 3 mg/ml Neowater.
Properties: The material dissolves in EtOH.
5 different glass vials were prepared: • 1. 5 mg CD-Dau+1.2 ml Neowater™. • 2. 1.8 mg CD-Dau+600 μl acetone. • 3. 1.8 mg CD-Dau+150 μl acetone+450 μl Neowater™ (25% acetone). • 4. 1.8 mg CD-Dau+600 μl 10% *PEG (Polyethylene Glycol). • 5. 1.8 mg CD-Dau+600 μl acetone+600 μl Neowater™. • The samples were vortexed and spectrophotometer measurements were performed on vials #1, 4 and 5 • The vials were left opened in order to evaporate the acetone (vials #2, 3, and 5).
As soon as the acetone was evaporated from solutions #2, 4 and 5, the material sedimented slightly and an additional amount of acetone was added to the vials. This protocol enables the dissolving of the material in the presence of acetone and Neowater™ while at the same time enabling the subsequent evaporation of acetone from the solution (this procedure was performed twice). Following the second cycle the liquid phase was removed from the vile and additional amount of acetone was added to the sediment material. Once the sediment material dissolved it was merged with the liquid phase removed previously. The merged solution was evaporated again. […] Later 1.2 ml of 10% PEG+Neowater™ were added also and after some time the acetone was evaporated from the solution. Finalizing these procedures, the vials were merged to one vial (total volume of 3 ml). On top of this final volume 3 ml of acetone were added in order to dissolve the material and to receive a lucid liquefied solution, which was then evaporated again at 50° C. The solution didn't reach equilibrium due to the fact that once reaching such status the solution would have been separated. By avoiding equilibrium, the material hydration status was maintained and kept as liquid. After the solvent evaporated the material was transferred to a clean vial and was closed under vacuum conditions.
2 mg Daunorubicine+1 ml Neowater™ was prepared in one vial and 2 mg of Daunorubicine+1 ml RO was prepared in a second vial.
1.14 ml of EtOH was added to one glass vial containing 18.5 mg of t-boc (an oily material). This was then divided into two vials and 1.74 ml Neowater™ or RO water was added to the vials such that the solution comprised 25% EtOH. Following spectrophotometer measurements, the solvent was evaporated from the solution and Neowater™ was added to both vials to a final volume of 2.31 ml in each vial. The solutions in the two vials were merged to one clean vial and packaged for shipment under vacuum conditions.

[2] = cited from earlier work
[3] = Solubilization of retinol in Neowater, absorbance and filtration (Example 10); type: physicochemical
Protocol: Retinol (vitamin A) was purchased from Sigma (Fluka, 99% HPLC). Retinol was solubilized in Neowater™ under the following conditions. 1% retinol (0.01 gr in 1 ml) in EtOH and Neowater™ 0.5% retinol (0.005 gr in 1 ml) in EtOH and Neowater™ 0.5% retinol (0.125 gr in 25 ml) in EtOH and Neowater™ 0.25% retinol (0.0625 gr in 25 ml) in EtOH and Neowater™. […] Absorbance spectrum of retinol in EtOH: Retinol solutions were made in absolute EtOH, with different retinol concentrations, in order to create a calibration graph; absorbance spectrum was detected in a spectrophotometer. […] Actual concentration of retinol is also unknown since some oil drops are not dissolved in the water. […] The solutions were filtrated in […] filter.

[4] = Solubilization of taxol in DMSO or Neowater with 17% EtOH (Example 13); type: physicochemical
Protocol: The following experiments were performed in order to ascertain whether the carrier composition comprising nanostructures was capable of dissolving material taxol (Paclitaxel) at a final concentration of 0.5 mM.
Solubilization: 0.5 mM Taxol solution was prepared (0.0017 gr in 4 ml) in either DMSO or Neowater™ with 17% EtOH. Absorbance was detected with a spectrophotometer.

[5] = Taxol in Neowater by slow solvent exchange, HPLC after storage (Example 16); type: physicochemical; conditions: taxol dispersed in Neowater, 6 month storage at −20° C.
Protocol: Solubilization: 0.5 mM Taxol solution was prepared (0.0017 gr in 4 ml). […] At the end of the procedure, less than 40% ethanol remained in the solution, leading to 0.08% of ethanol in the final administered concentration. The solution was sterilized using a 0.2 μm filter. Taxol was separately prepared in DMSO (0.5 mM). Both solutions were kept at −20° C. Absorbance was detected with a spectrophotometer.

[6] = Solubilization of peptides in Neowater (Example 9); type: physicochemical; conditions: Neowater at 0.5 mM
Protocol: In addition, the effect of the peptides on Skov-3 cells was measured in order to ascertain whether the carrier composition comprising nanostructures influenced the cytotoxic activity of the peptides.
Solubilization: All seven peptides (Peptide X, X-5FU, NLS-E, Palm-PFPSYK (CMFU), […]-NH2, NLS-p2-LHRH, and F-LH-RH-palm kGFPSK) were dissolved in Neowater™ at 0.5 mM. Spectrophotometric measurements were taken.

COc1cccc2c1C(=O)c1c(O)c3c(c(O)c1C2=O)C[C@@](O)(C(C)=O)C[C@@H]3O[C@H]1C[C@H](N)[C@H](O)[C@H](C)O1 [Daunorubicine, Cerubidine hydrochloride]
dissolving ([1]; 2 mg in 1 ml Neowater): dissolves without difficulty
dissolving ([1]; 2 mg in 1 ml RO): dissolves without difficulty
solubility in water [2]: known not to dissolve in water

CC1=C(/C=C/C(C)=C/C=C/C(C)=C/CO)C(C)(C)CCC1 [Retinol]
retinol concentration in EtOH with similar absorbance pattern ([3]; 0.25% retinol in Neowater): ~0.03125%
retinol in the solutions following filtration ([3]; 0.25% retinol in Neowater, 1.5% EtOH, 0.44 and 0.2 filter): less than 0.03125%
retinol concentration in EtOH with similar absorbance pattern ([3]; 0.5% retinol in Neowater): ~0.125%

CC(=O)O[C@H]1C(=O)[C@@]2(C)[C@H]([C@H](OC(=O)c3ccccc3)[C@]3(O)C[C@H](OC(=O)[C@H](O)[C@@H](NC(=O)c4ccccc4)c4ccccc4)C(C)=C1C3(C)C)[C@]1(OC(C)=O)CO[C@@H]1C[C@@H]2O [Taxol, Paclitaxel]
dissolving ([4]; 0.5 mM in DMSO): dissolved
dissolving ([4]; 0.5 mM in Neowater with 17% EtOH): dissolved
structural changes on storage (HPLC) [5]: no structural changes

Daidzein—daunomycin conjugate [CD-Dau]
dissolving ([1]; Vial #1, 100% Neowater, 5 mg in 1.2 ml): sedimented after a few hours
dissolving ([1]; Vial #2, 100% acetone, 1.8 mg in 600 μl): 48 hours later the material sedimented partially
dissolving ([1]; Vial #3, 25% acetone in Neowater): didn't dissolve very well
dissolving ([1]; Vial #4, 10% PEG+Neowater): dissolved better than the CD-Dau in vial #1
dissolving ([1]; Vial #5, acetone then Neowater, acetone evaporated): as the acetone evaporated the material partially sediment to the bottom of the vial
solubility in water [2]: known not to dissolve in water

F-LH-RH-palm kGFPSK
dissolving [6]: dissolved

PFPSYKLRPG-NH2
dissolving [6]: dissolved

Palm-PFPSYK (CMFU)
dissolving [6]: dissolved
